# According to patent publication US12059467B2, “Low-toxicity and high-efficiency orthoester mixture pharmaceutical adjuvant, preparation method thereof, and topical sustained release drug delivery formulation including same” (ANHUI UNIVERSITY, priority 2022, dated 2024):
# Entries after “also recorded” stand apart in the source; their conditions may differ.
# B1: ovalbumin (protein, UniProt P01012 2-386, looked up)
# Ovalbumin: GSIGAASMEFCFDVFKELKVHHANENIFYCPIAIMSALAMVYLGAKDSTRTQINKVVRFDKLPGFGDSIEAQCGTSVNVHSSLRDILNQITKPNDVYSFSLASRLYAEERYPILPEYLQCVKELYRGGLEPINFQTAADQARELINSWVESQTNGIIRNVLQPSSVDSQTAMVLVNAIVFKGLWEKAFKDEDTQAMPFRVTEQESKPVQMMYQIGLFRVASMASEKMKILELPFASGTMSMLVLLPDEVSGLEQLESIINFEKLTEWTSSNVMEERKIKVYLPRMKMEEKYNLTSVLMAMGITDVFSSSANLSGISSAESLKISQAVHAAHAEINEAGREVVGSAEAGVDAASVSEEFRADHPFLFCIKHIATNAVLFFGRCVSP
# notes: ovalbumin alone, injected subcutaneously as comparator
# What was measured:
# [1] = test system: mice; assay: Acute toxicity test (LD50, MTD); assay type: in vivo
# Description: With OE-2 in the patent application 202111500943.7 as a reference formulation, the OE-1′ obtained in Example 1 was subjected to an acute toxicity test, and experimental steps were as follows:
# OE-2 and 0E-1′ each were administered to different mice at a time through intragastric administration, subcutaneous injection, and intraperitoneal injection with a dose gradient from 1 mg/kg to 50,000 mg/kg; poisoning characteristics of mice within 24 h were observed, and a mortality rate was counted; and an accurate LD50 value was calculated according to the probability unit method and the karber's method, and finally experimental groups were compared in terms of acute toxicity.
# Note: The larger the LD50 value in the experimental group, the smaller the acute toxicity.
# [2] = test system: red blood cell (RBC) suspension; assay: Hemolysis test; assay type: cell-based; settings: 3 mg/mL to 15 mg/mL, 37° C., 3 h; hemolysis rate lower than 5% means no hemolytic effect
# Description: Preparation of test samples: negative control: 2.5 mL of a red blood cell (RBC) suspension+2.5 mL of a 0.9% sodium chloride injection; positive control: 2.5 mL of an RBC suspension+2.5 mL of distilled water; and experimental group: 2.5 mL of an RBC suspension+2.2 mL of a 0.9% sodium chloride injection+0.3 mL of a formulation to be tested (3 mg/mL to 15 mg/mL).
# Each sample was incubated in a 37° C. thermostatic water bath for 3 h and then centrifuged (3,000 r/min, 5 min) to obtain a supernatant, the supernatant was allowed to stand at room temperature for 30 min, and the absorbance of the sample was determined at 540 nm by a microplate reader; and the influence of plasma contents was eliminated with the absorbance of the negative control group, and then a hemolysis rate (%) of the experimental group could be calculated according to the following formula: HL%=At/Apc×100%, where At represents an absorbance value of a test sample and APC represents an absorbance value of the positive control. When a hemolysis rate is lower than 5%, it means that the formulation of the experimental group has no hemolytic effect at a corresponding concentration.
# [3] = test system: mice; assay: Cardiovascular system-associated safety evaluation; assay type: in vivo; settings: subcutaneous, 15,000 mg/kg, measured daily in the following week
# Description: Different formulations each were subcutaneously injected into different mice at a dose of 15,000 mg/kg, and a blood pressure and a heart rate of mice in each group were measured daily by […] in the following week.
# [4] = test system: mice; assay: Respiratory system and blood oxygen saturation tests; assay type: in vivo; settings: subcutaneous, 15,000 mg/kg, measured daily in the following week
# Description: Different formulations each were subcutaneously injected into different mice at a dose of 15,000 mg/kg, and a breathing rate and a blood oxygen saturation of mice in each group were measured daily by a small animal non-invasive pulse oximeter in the following week.
# [5] = Alcohol metabolite biodistribution test; assay type: in vivo, mice; settings: subcutaneous, 15,000 mg/kg; urine, blood, heart, liver, spleen, lung, kidney; gas chromatograph
# Description: Preparation of standard solutions: an appropriate amount of methanol or ethanol was accurately weighed and prepared with water into a 10.0 mg/mL standard solution as a stock solution, and the stock solution was further diluted into aqueous solutions with concentrations of 0.10 mg/mL, 0.20 mg/mL, 0.50 mg/mL, 0.80 mg/mL, 1.00 mg/mL, 2.00 mg/mL, and 3.00 mg/mL, respectively. Preparation of an internal standard solution: an appropriate amount of tert-butyl alcohol (TBA) was accurately weighed and prepared with water into a 5.0 mg/mL TBA stock solution, the TBA stock solution was diluted with water to obtain a 40.0 μg/mL TBA working solution, and the TBA working solution was refrigerated and stored in a closed manner.
# Different formulations each were subcutaneously injected into different mice at a dose of 15,000 mg/kg, and then the urine, blood, heart, liver, spleen, lung, and kidney were collected from the mice at different time points. 0.10 mL of each of the standard solutions, urine, blood, and tissue extracts was taken and mixed with 0.50 mL of a 40.0 μg/mL TBA working solution, and a resulting mixture was tested by a gas chromatograph. A standard curve with a linear regression coefficient of 0.999 or higher was plotted with results of the standard solutions, and then a methanol or ethanol content in each sample was calculated. […]
# [6] = test system: mice; assay: Chronic toxicity test; assay type: in vivo; settings: subcutaneous, 15,000 mg/kg, 6 months
# Description: Different formulations each were subcutaneously injected into different mice at a dose of 15,000 mg/kg, and the continuous behavioral observation, routine blood test, biochemical index test, and organ weight measurement were conducted for 6 months.
# [7] = test system: Hypertension model rats; assay: Antihypertensive effect in hypertension model rats; settings: 40 mg/kg based on an irbesartan content; irbesartan orally, E-1′-Irbe subcutaneous injection
# Description: Hypertension model rats were treated with irbesartan and the prepared irbesartan injection (E-1′-Irbe) at a dose of 40 mg/kg based on an irbesartan content, where the irbesartan was administered orally and the irbesartan injection (E-1′-Irbe) was administered through subcutaneous injection. A drug concentration in blood and a blood pressure level were detected at a preset time point.
# [8] = test system: pain model rats; assay: Analgesic effect in pain model rats; assay type: in vivo; settings: subcutaneous, 200 mg/kg based on a mepivacaine content
# Description: Mepivacaine and the prepared mepivacaine injection (E-A′-Mep) each were subcutaneously injected into different pain model rats at a dose of 200 mg/kg based on a mepivacaine content. A time required for a rat to have a normal response to deep pain and electric stimulation and a time required for a rat to return from a motor weakness state to a normal state were then recorded; and when half of rats returned to a normal state, the test was stopped.
# [9] = test system: mice; assay: Antibody-producing effect (IgG) in mice; assay type: in vivo; settings: subcutaneous, 50 mg/kg based on an ovalbumin content on day 1 and day 15
# Description: Ovalbumin and the prepared ovalbumin injection (E-C′-Ova) were subcutaneously injected into different mice at a dose of 50 mg/kg based on an ovalbumin content on day 1 and day 15, and an IgG concentration was detected.
molecule,measurement,setting,value
"CCOC1OCC(COCC2COC(OCC)O2)O1 (centres unmarked) [OE-1′, 4,4′-(Oxybis(Methylene))Bis(2-Ethoxy-1,3-Dioxolane)]",tolerance dose of mice (MTD),"[1]; mouse, in vivo",higher than a tolerance dose of mice for OE-2
same,LD50 value,"[1]; single administration, intragastric, subcutaneous, intraperitoneal, mortality within 24 h",significantly higher than an LD50 value of OE-2
same,hemolytic effect (hemolysis rate),[2],does not lead to a hemolytic effect
same,cardiovascular function (blood pressure and heart rate),[3],at a normal level
same,blood oxygen saturation,[4],at normal levels
same,breathing rate,[4],at normal levels
same,methanol or ethanol content in each sample,[5],a trace amount of ethanol is detected in each sample
same,organ mass,[6],significantly higher than an organ mass of mice in the OE-2 group
CCCCC1=NC2(CCCC2)C(=O)N1Cc1ccc(-c2ccccc2-c2nnn[nH]2)cc1 [irbesartan],blood pressure level,[7],can reduce a blood pressure; also recorded: rebounds rapidly
same,drug concentration in blood,[7],decreases rapidly
"Cc1cccc(C)c1NC(=O)C1CCCCN1C (centres unmarked) [Normal saline (NS) + mepivacaine, mepivacaine]","Time required for half of rats to have a normal response, Deep pain",[8],60 min
same,"Time required for half of rats to have a normal response, Electric stimulation",[8],60 min
same,"Time required for half of rats to have a normal response, Motor weakness",[8],60 min
B1,IgG concentration,[9],decreases rapidly
